Measured values: patent US4550107A, “Condensed diazepinones, their compositions and methods of use as pharmaceuticals” (Dr. Karl Thomae GmbH, priority 1984, dated 1985)
Where “and” joins values, the source holds several entries; their conditions need not be identical. Equal entries are not always repeated.

Assays:
[1] = target: muscarinic receptors (cerebral cortex); assay: Receptor binding tests: inhibition of specific 3H-N-methylscopolamine binding, cerebral cortex; set-up: species or system Sprague-Dawley rats; conditions: cerebral cortex homogenate 1:3000; 0.3 nM 3H-NMS; 30° C., 45 min, pH 7.4
Experimental: (§1) B. Studies of binding to muscarinic receptors: determining the IC50 value
(§2) The organ donors are Sprague-Dawley rats weighing from 180-220 g. After the removal of the heart, stomach and cerebral cortex, all the other steps are carried out in ice-cold Hepes-HCl buffer (pH 7.4; 100 m molar NaCl, 10 m molar MgCl2). The whole heart is cut up with scissors. All the organs are then homogenised in a Potter apparatus. For the bonding test, the homogenised organs are diluted as follows:
(§3) The homogenised organs are incubated at a specific concentration of the radioligand and with a series of concentrations of the non-radioactive test substances in an Eppendorf centrifugal test tube at 30° C. Incubation lasts 45 minutes. The radioligand is 0.3 n molar ^3 H-N-methylscopolamine (^3 H-NMS). After incubation has been ended by centrifuging at 14,000 g, the radioactivity in the pellet is determined. It represents the sum of specific and non-specific binding of ^3 H-NMS. The proportion of non-specific binding is defined as the radioactivity which binds in the presence of 1 μmolar quinuclidinyl benzylate. Four measurements are made in each case. The IC50 values of the non-labeled test substances are determined graphically. They represent the concentration of test substance at which the specific binding of ^3 H-NMS to the muscarinic receptors in the various organs is inhibited by 50%.

[2] = target: T1, muscarinic receptors (heart) (Rattus norvegicus, UniProt P10980); assay: Receptor binding tests: inhibition of specific 3H-N-methylscopolamine binding, whole heart; set-up: species or system Sprague-Dawley rats; conditions: whole heart homogenate 1:250; 0.3 nM 3H-NMS; 30° C., 45 min, pH 7.4
T1 construct: The whole heart is cut up with scissors; All the organs are then homogenised in a Potter apparatus; from tissue; host or cells: rat whole heart, homogenised (1:250)
T1 sequence (P10980 1-466): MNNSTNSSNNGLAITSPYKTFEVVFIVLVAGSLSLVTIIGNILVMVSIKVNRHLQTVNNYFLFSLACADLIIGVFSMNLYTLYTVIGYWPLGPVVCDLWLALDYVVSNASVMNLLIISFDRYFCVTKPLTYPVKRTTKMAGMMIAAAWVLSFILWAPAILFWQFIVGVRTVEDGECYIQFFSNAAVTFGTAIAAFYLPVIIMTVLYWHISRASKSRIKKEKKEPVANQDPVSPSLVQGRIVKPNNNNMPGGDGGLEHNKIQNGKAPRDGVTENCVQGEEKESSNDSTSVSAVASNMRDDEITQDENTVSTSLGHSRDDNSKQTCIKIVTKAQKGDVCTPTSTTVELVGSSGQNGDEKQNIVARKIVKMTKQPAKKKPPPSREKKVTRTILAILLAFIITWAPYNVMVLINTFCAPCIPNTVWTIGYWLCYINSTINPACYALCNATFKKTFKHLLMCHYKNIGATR
Experimental: as §1, §2, §3

[3] = Stability of separated diastereoisomers (reversion into the original mixture); type: physicochemical; conditions: for stability in crystalline form: temperature below the melting point
Description: The base-substituted condensed diazepinones of formula I according to the invention contain up to two independent chiral elements, including an asymmetric carbon atom in the side chain. The second chiral element is the acylated tricyclic moiety itself, which can occur in two mirror-image forms. The nature of the tricyclic compound determines whether the energy barrier for inversion at this center is so high that the individual isomers are stable at ambient temperature and capable of being isolated.
The title compound is prepared analogously to Example 2 from 5-(chloroacetyl)-5,10-dihydro-11H-dibenzo[b,e][1,4]diazepin-11-one and D,L-2-[(4-methyl-1-piperazinyl)methyl]-piperidine to give colorless crystals, mp. 200°-202° C. (acetonitrile/activated charcoal). According to thin layer chromatography (Polygram® SIL G/UV254; eluant: dichloromethane/ethyl acetate/cyclohexane/methanol/conc. ammonia 3.5:1.5:0.46: 0.46:0.06; RF approx. 0.25) it is a mixture of isomers in a quantity ratio of approximately 1:1. Preparative separation is carried out by the following method:
(a) By liquid chromatography (HPLC):
Mobile Phase: Methylene chloride/cyclohexane/methanol/conc. ammonia (200:210:40:0.5 v/v);
In each case, a solution (100 μl) of the diastereoisomer mixture (15.2 mg) is injected into the mobile phase (1 ml) and thus placing the substance (1.5 mg) on the column.
(b) By liquid chromatography on a Jobin-Yvon chromatospac Prep using Li Chroprep Si 60, 25-40 μm (Merck-Darmstadt, Art. 9390) under a pressure of 10 bar.

heart rate = assay: Heart rate increasing activity (tachycardia) in the conscious dog; type: in vivo; conditions: Canis lupus familiaris, iv; dose increasing heart rate by 50 beats per minute; conscious dogs; read-out: Tachycardia (dog) ED50
Experimental: (§4) The methods used have the objective of confirming the selectivity of the antimuscarinic acitivity. Those substances which are selected on the basis of "in vitro" investigations are tested for:
1. tachycardiac effect in conscious dogs;
1. Heart rate increasing activity in the conscious dogs
The substances are injected intravenously and the heart rate is measured with the aid of a tachygraph. After a control period, increasing doses of the compound are administered in order to increase the heart rate. The next dose is injected when the effect of the preceding dose is no longer visible. […] Each substance is tested on 3 to 5 dogs.

gastric acid secretion = assay: Inhibition of gastric acid secretion in pylorus-ligated rats (Shay rat); type: in vivo, male Wistar rats; conditions: iv, 2 h, i.v., 5 min before pylorus ligature, volume or acid output reduced by 50%
Experimental: as §4
2. inhibitory effect on gastric acid secretion in pylorous-ligated rats; and
2. Inhibition of secretion in rats
Increasing doses of the substance are injected intravenously into male Wistar rats (10 rats per group) 5 minutes before the ligature of the pylorus. The rats are killed 2 hours later and both the volume of gastric acid and also the "acid output" are determined by titration. The dosage of substance which reduces either the volume or the acid output by 50% is determined.

Row | IC50 [1] | IC50 [2] | SMILES | other results
1 | 750 nM and 1000 nM | 150 nM and 100 nM | CCN(CC)CC1CCCCN1CC(=O)N1c2ccccc2NC(=O)c2ccccc21 (centres unmarked) [F] | –
2 | 1100 nM | 70 nM | CN(CC1CCCCN1CC(=O)N1c2ccccc2C(=O)Nc2cccnc21)[C@H]1CC[C@H](O)CC1 (relative stereo) [K] | –
3 | 100 nM | 35 nM | CCN(CC)CC1CCCN(CC(=O)N2c3ccccc3NC(=O)c3ccccc32)C1 (centres unmarked) [M] | –
4 | – | – | CN1CCN(CC2CCCCN2CC(=O)N2c3ccccc3NC(=O)c3ccccc32)CC1 (single isomer, unassigned) [Isomer I, 5,10-Dihydro-5-[[2-[(4-methyl-1-piperazinyl)methyl]-1-piperidinyl]-acetyl]-11H-dibenzo[b,e][1,4]diazepin-11-one] | stability in crystalline form [3]: completely stable; half-life ([3]; hplc mobile phase solution, ambient temperature, mobile phase methylene chloride/cyclohexane/methanol/conc. ammonia, read-out: reverts into the original mixture, t1/2): < 216 h
5 | 50 nM | 13 nM | CN(CC1CCCCN1CC(=O)N1c2ccccc2NC(=O)c2ccccc21)C1CCCCC1 (centres unmarked) [N] | –
6 | 4500 nM | 400 nM | CCN(CC)C[C@@H]1CCCN1CC(=O)N1c2ccccc2C(=O)Nc2cccnc21 [H] | –
7 | 1300 nM | 170 nM | CN(C)CCC1CCCCN1CC(=O)N1c2ccccc2C(=O)Nc2cccnc21 (centres unmarked) [E] | –
8 | 85 nM | 19 nM | CN(CC1CCCN(CC(=O)N2c3ccccc3C(=O)Nc3cccnc32)C1)C1CCCCC1 (centres unmarked) [L] | –
9 | 120 nM | 17 nM | CN1CCCC1C1CCCN(CC(=O)N2c3ccccc3NC(=O)c3ccccc32)C1 (centres unmarked) [P] | –
10 | – | – | CN1C2CCC1CC(OC(=O)C(CO)c1ccccc1)C2 (centres unmarked) [C] | ED (increase of 50 beats per minute) (heart rate): 0.0077 mg/kg
11 | – | – | CN1CCN(CC2CCCCN2CC(=O)N2c3ccccc3NC(=O)c3ccccc32)CC1 (single isomer, unassigned) [Isomer II, 5,10-Dihydro-5-[[2-[(4-methyl-1-piperazinyl)methyl]-1-piperidinyl]-acetyl]-11H-dibenzo[b,e][1,4]diazepin-11-one] | stability in crystalline form [3]: completely stable
12 | – | – | CN1CCN(CC(=O)N2c3ccccc3C(=O)Nc3cccnc32)CC1 [B] | ED (increase of 50 beats per minute) (heart rate): 0.468 mg/kg; ED50 (gastric acid secretion): 0.4 mg/kg
13 | 2200 nM | 220 nM | CCN(CC)CC1CCCCN1CC(=O)N1c2ccccc2NC(=O)c2cscc21 (centres unmarked) [G] | –
14 | 800 nM | 90 nM | CCN(CC)C[C@@H]1CCCN1CC(=O)N1c2ccccc2NC(=O)c2ccccc21 [I] | –
15 | 1500 nM | 150 nM and 130 nM | CN(C)CC1CCCCN1CC(=O)N1c2ccccc2C(=O)Nc2cccnc21 (centres unmarked) [D] | –
16 | 100 nM | 18 nM | CCCCN(C)CC1CCCCN1CC(=O)N1c2ccccc2NC(=O)c2ccccc21 (centres unmarked) [Q] | –
17 | 20 nM | 2.8 nM | CN(CC1CCCN(CC(=O)N2c3ccccc3NC(=O)c3ccccc32)C1)C1CCCCC1 (centres unmarked) [O] | –

Row | SMILES | IC50 [1] | IC50 [2] | other results
18 | CCN(CC)CC1CCCCN1CC(=O)N1c2ccccc2C(=O)Nc2cccnc21 (racemic) [A] | – | 140 nM and 150 nM | ED (increase of 50 beats per minute) (heart rate): 0.103 mg/kg; ED50 (gastric acid secretion): > 10 mg/kg
